Measurements: patent EP0687685A1, “PHYSIOLOGICALLY ACTIVE PEPTIDE” (TEIJIN LIMITED, priority 1993, dated 1994)
Where two headings read alike, the source gives them in different places. Positions of bridges follow the written chain, without caps; N, C: chain ends. Residues, ends and D or L forms follow the SMILES beside them. Chains are numbered I, II in the order given. *: point of attachment. Mob = COc1ccc(C*)cc1; Acm = CC(=O)NC*

Target: T1, human type II PLA₂ (Homo sapiens, UniProt P14555)
T1 construct: made in house; host or cells: Sf9 insect cells, baculovirus (AcNPV), vector pAcTJI1; purified from culture supernatant
T1 sequence (P14555 21-144): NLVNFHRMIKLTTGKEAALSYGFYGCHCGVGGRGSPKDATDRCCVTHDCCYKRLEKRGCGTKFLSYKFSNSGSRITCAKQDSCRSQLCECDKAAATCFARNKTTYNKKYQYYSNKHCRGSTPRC
Assay: Enzyme inhibition of human type II PLA₂ in the presence of heparin, radiolabeled synthetic phospholipid (method of Dole)
Format: biochemical
Conditions: PLA₂ enzyme 200 ng/ml; for inhibition at 5 µg/mL / remaining activity at 5 µg/mL: peptide 5 µg/ml; for inhibition at 10 µg/mL / remaining activity at 10 µg/mL: peptide 10 µg/ml; for inhibition at 50 µg/mL / remaining activity at 50 µg/mL: peptide 50 µg/ml; for inhibition at 100 µg/mL / remaining activity at 100 µg/mL: peptide 100 µg/ml

[1] = heparin 50 µg/ml, read-out: PLA₂enzyme activity (%)
[2] = heparin 10 µg/ml, read-out: PLA₂enzyme activity (%)

Compound	inhibition at 5 µg/mL (heparin 50 µg/ml)	remaining activity at 5 µg/mL [1]	inhibition at 10 µg/mL (heparin 50 µg/ml)	remaining activity at 10 µg/mL [1]	inhibition at 50 µg/mL (heparin 50 µg/ml)	remaining activity at 50 µg/mL [1]	inhibition at 100 µg/mL (heparin 50 µg/ml)	remaining activity at 100 µg/mL [1]	inhibition at 1 µg/mL (peptide 1 µg/ml, heparin 10 µg/ml)	remaining activity at 1 µg/mL (peptide 1 µg/ml, heparin 10 µg/ml, read-out: PLA₂enzyme activity (%))	inhibition at 5 µg/mL (heparin 10 µg/ml)	remaining activity at 5 µg/mL [2]	inhibition at 10 µg/mL (heparin 10 µg/ml)	remaining activity at 10 µg/mL [2]
COc1ccc(CSC[C@H](NC(=O)CNC(=O)[C@H](CCCNC(=N)N)NC(=O)[C@@H](N)CCCCN)C(=O)NCC(=O)N[C@H](C(=O)N[C@@H](CCCCN)C(=O)N[C@@H](Cc2ccccc2)C(=O)N[C@@H](CC(C)C)C(=O)N[C@@H](CO)C(=O)N[C@@H](Cc2ccc(O)cc2)C(=O)N[C@@H](CCCCN)C(=O)N[C@@H](Cc2ccccc2)C(=O)N[C@@H](CO)C(=O)N[C@@H](CSSC[C@H](NC(=O)[C@H](CO)NC(=O)[C@H](Cc2ccccc2)NC(=O)[C@H](CCCCN)NC(=O)[C@H](Cc2ccc(O)cc2)NC(=O)[C@H](CO)NC(=O)[C@H](CC(C)C)NC(=O)[C@H](Cc2ccccc2)NC(=O)[C@H](CCCCN)NC(=O)[C@@H](NC(=O)CNC(=O)[C@H](CSCc2ccc(OC)cc2)NC(=O)CNC(=O)[C@H](CCCNC(=N)N)NC(=O)[C@@H](N)CCCCN)[C@@H](C)O)C(=O)O)C(=O)O)[C@@H](C)O)cc1 [Peptide (2)] (I: H-KRGC(Mob)GTKFLSYKFSC-OH / II: H-KRGC(Mob)GTKFLSYKFSC-OH; disulfide I:15-II:15)	25%	75%	52%	48%	81%	19%	89%	11%	–	–	–	–	–	–
CC(=O)NCSC[C@H](NC(=O)[C@H](CO)NC(=O)[C@H](Cc1ccccc1)NC(=O)[C@H](CCCCN)NC(=O)[C@H](Cc1ccc(O)cc1)NC(=O)[C@H](CO)NC(=O)[C@H](CC(C)C)NC(=O)[C@H](Cc1ccccc1)NC(=O)[C@H](CCCCN)NC(=O)[C@@H](NC(=O)CNC(=O)[C@H](CSSC[C@H](NC(=O)CNC(=O)[C@H](CCCNC(=N)N)NC(=O)[C@@H](N)CCCCN)C(=O)NCC(=O)N[C@H](C(=O)N[C@@H](CCCCN)C(=O)N[C@@H](Cc1ccccc1)C(=O)N[C@@H](CC(C)C)C(=O)N[C@@H](CO)C(=O)N[C@@H](Cc1ccc(O)cc1)C(=O)N[C@@H](CCCCN)C(=O)N[C@@H](Cc1ccccc1)C(=O)N[C@@H](CO)C(=O)N[C@@H](CSCNC(C)=O)C(=O)O)[C@@H](C)O)NC(=O)CNC(=O)[C@H](CCCNC(=N)N)NC(=O)[C@@H](N)CCCCN)[C@@H](C)O)C(=O)O [Peptide (13)] (I: H-KRGCGTKFLSYKFSC(Acm)-OH / II: H-KRGCGTKFLSYKFSC(Acm)-OH; disulfide I:4-II:4)	42%	58%	62%	38%	81%	19%	86%	14%	–	–	–	–	–	–
CC(C)C[C@@H]1NC(=O)[C@H](Cc2ccccc2)NC(=O)[C@H](CCCCN)NC(=O)[C@H]([C@@H](C)O)NC(=O)CNC(=O)[C@@H](NC(=O)CNC(=O)[C@H](CCCNC(=N)N)NC(=O)[C@@H](N)CCCCN)CSSC[C@@H](C(=O)O)NC(=O)[C@H](CO)NC(=O)[C@H](Cc2ccccc2)NC(=O)[C@H](CCCCN)NC(=O)[C@H](Cc2ccc(O)cc2)NC(=O)[C@H](CO)NC(=O)[C@H](CC(C)C)NC(=O)[C@H](Cc2ccccc2)NC(=O)[C@H](CCCCN)NC(=O)[C@H]([C@@H](C)O)NC(=O)CNC(=O)[C@@H](NC(=O)CNC(=O)[C@H](CCCNC(=N)N)NC(=O)[C@@H](N)CCCCN)CSSC[C@@H](C(=O)O)NC(=O)[C@H](CO)NC(=O)[C@H](Cc2ccccc2)NC(=O)[C@H](CCCCN)NC(=O)[C@H](Cc2ccc(O)cc2)NC(=O)[C@H](CO)NC1=O [Peptide (17)] (I: H-KRGCGTKFLSYKFSC-OH / II: H-KRGCGTKFLSYKFSC-OH; disulfide I:4-II:15, I:15-II:4)	–	–	–	–	–	–	–	–	69%	31%	91%	9%	94%	6%
